Reference: patent US12606561B2, “Substituted pyrazolo[1,5-a][1,3,5]triazines as CDK inhibitors” (QURIENT CO., LTD., priority 2018, dated 2026)

What was measured:
CDK7/Cyclin H/MNAT1 = target: T1, CDK7/Cyclin H/MNAT1 (Homo sapiens, UniProt P50613); experiment: Enzymatic assay for CDK7 (LANCE Ultra kinase assay, FRET based); assay type: biochemical; conditions: for IC50: ATP at Km
T1 construct: purchased Invitrogen PR6749B
How it was run: (§1)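 Kinase activity of each purified CDK/cyclin complex was followed in a FRET format where a Europium anti-phospho-antibody recognises phosphorylated ULight-labeled peptide. ATP was held at its Km.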

CDK5/p25 = target: T2, CDK5/p25 (Homo sapiens, UniProt Q00535); experiment: Enzymatic assay for CDK5 (LANCE Ultra kinase assay, FRET based); assay type: biochemical; conditions: ATP at Km
T2 construct: purchased Invitrogen PR8543B
How it was run: (§2)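 TR-FRET kinase assay at ATP Km with ULight-MBP peptide (68 nM) and Eu-anti-phospho-MBP antibody; CDK2/Cyclin A at […], CDK5/p25 at […]. 8-dose 4-fold compound dilutions; 60 min kinase reaction at 23° C., EDTA stop, 60 min detection, read at 615/665 nm.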

CDK2/Cyclin A = target: T3, CDK2/Cyclin A (Homo sapiens, UniProt P24941); experiment: Enzymatic assay for CDK2 (LANCE Ultra kinase assay, FRET based); assay type: biochemical; conditions: ATP at Km
T3 construct: purchased Invitrogen PV6290
How it was run: as §2

CDK1/Cyclin B = target: T4, CDK1/Cyclin B (Homo sapiens, UniProt P06493); experiment: Enzymatic assay for CDK1 (LANCE Ultra kinase assay, FRET based); assay type: biochemical; conditions: ATP at Km; read-out: CDK1 enzymatic activity IC50
T4 construct: purchased Invitrogen PR4768C
How it was run: as §1

OVCAR-3 = OVCAR-3 viability assay (CellTiter-Glo, 72 hours); assay type: cell-based; conditions: Homo sapiens; OVCAR-3 cells
Protocol: Human […] cell line, MV4-11_(ATCC, Cat #CRL-9591), NSCLC (Non-small cell lung cancer) cell line H460 (ATCC, Cat #HTB-177), A2780 (ECACC, Cat #93112519) and OVCAR-3(ATCC, Cat #HTB-161) were obtained from ATCC. Cells were grown in RPMI-1640 media (Invitrogen, Cat #22400-089) supplemented with 10% FBS (Invitrogen, Cat #10099141) and 1% penicillin/streptomycin (Invitrogen, Cat #15070063) and cultured at 37° C., 5% CO2 in a humidified chamber. All cell lines were routinely tested for mycoplasma.
To effect of the CDK7 inhibitor to inhibit the growth of target cancer cells, viability assay were conducted a 72 hour time period. Briefly, the candidate cell line was plated in 96 well plate at the following density of cells respectively. 1×10^4 cells/well for MV4-11, 5×10^3 for H460 and OVCAR-3, and 1×10^3 for A2780. After 24 hours, the cells were treated with various concentrations of the compound (ranging from 0.0015 uM to 10 uM). DMSO solvent without compound served as a control and final DMSO concentration lest than 0.1%. After 72 hours of incubation at 37° C., 5% CO2 incubator, cells were analyzed for the viability using the CellTiter-Glo Luminescent Cell Viability Assay (Promega, Cat #G7570). All viability assays were performed in duplicate and Luminescence was read using an Envision (Perkin Elmer, USA). Data was analyzed using XLfit software.

A2780 = A2780 viability assay (CellTiter-Glo, 72 hours); assay type: cell-based; conditions: Homo sapiens; A2780 cells
How it was run: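 Each line was plated at its own density (1×10^4, 5×10^3 and 1×10^3 cells/well for MV4-11, OVCAR-3 and A2780 respectively) in RPMI-1640 with 10% FBS. Treatment with compound, 0.0015 uM to 10 uM and DMSO under 0.1%, lasted 72 h. Surviving cells were quantified by CellTiter-Glo.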

T2 sequence (Q00535 whole entry): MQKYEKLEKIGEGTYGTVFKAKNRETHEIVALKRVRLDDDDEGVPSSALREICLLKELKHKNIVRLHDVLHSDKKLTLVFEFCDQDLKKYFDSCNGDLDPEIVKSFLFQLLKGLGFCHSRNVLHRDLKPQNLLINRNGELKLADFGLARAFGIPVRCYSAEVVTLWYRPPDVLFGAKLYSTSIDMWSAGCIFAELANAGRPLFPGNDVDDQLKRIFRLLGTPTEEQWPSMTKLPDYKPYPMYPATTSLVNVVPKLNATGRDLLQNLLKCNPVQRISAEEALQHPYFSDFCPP
T2 sequence (Q15078 99-307 partner limits assumed): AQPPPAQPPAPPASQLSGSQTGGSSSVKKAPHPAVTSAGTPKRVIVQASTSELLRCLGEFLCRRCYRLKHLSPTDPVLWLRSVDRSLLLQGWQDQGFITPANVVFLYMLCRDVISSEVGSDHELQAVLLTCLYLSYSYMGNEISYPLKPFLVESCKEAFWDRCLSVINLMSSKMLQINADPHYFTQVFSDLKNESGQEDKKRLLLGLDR
T4 sequence (P06493 whole entry): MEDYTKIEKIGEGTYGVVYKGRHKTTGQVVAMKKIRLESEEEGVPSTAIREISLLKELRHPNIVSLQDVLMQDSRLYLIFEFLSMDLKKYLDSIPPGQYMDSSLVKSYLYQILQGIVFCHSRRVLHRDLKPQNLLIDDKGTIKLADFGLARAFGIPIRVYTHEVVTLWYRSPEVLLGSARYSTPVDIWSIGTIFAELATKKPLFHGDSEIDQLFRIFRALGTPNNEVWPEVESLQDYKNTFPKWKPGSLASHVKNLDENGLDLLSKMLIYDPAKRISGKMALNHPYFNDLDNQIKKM
T4 sequence (P14635 whole entry partner): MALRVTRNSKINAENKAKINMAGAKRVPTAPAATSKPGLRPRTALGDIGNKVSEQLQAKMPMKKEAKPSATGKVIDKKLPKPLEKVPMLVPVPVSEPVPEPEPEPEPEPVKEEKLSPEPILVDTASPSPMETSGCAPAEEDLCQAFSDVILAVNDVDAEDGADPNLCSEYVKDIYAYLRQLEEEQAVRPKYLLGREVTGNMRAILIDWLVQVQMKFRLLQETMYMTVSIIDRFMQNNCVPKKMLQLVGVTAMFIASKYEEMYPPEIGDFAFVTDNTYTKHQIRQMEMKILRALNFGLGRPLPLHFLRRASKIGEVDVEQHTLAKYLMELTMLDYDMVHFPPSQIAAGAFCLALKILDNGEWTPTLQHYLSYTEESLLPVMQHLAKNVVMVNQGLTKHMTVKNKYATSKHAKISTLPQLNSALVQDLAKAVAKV
T1 sequence (P50613 whole entry): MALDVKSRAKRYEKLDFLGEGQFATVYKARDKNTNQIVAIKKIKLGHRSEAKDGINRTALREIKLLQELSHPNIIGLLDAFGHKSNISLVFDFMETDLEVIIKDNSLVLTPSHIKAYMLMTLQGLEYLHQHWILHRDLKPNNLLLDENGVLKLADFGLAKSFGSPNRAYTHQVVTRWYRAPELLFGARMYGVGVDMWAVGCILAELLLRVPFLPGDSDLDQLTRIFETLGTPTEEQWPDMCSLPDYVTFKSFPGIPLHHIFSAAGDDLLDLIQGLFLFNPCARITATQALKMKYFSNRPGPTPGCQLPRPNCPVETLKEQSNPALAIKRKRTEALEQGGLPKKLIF
T1 sequence (P51946 whole entry partner): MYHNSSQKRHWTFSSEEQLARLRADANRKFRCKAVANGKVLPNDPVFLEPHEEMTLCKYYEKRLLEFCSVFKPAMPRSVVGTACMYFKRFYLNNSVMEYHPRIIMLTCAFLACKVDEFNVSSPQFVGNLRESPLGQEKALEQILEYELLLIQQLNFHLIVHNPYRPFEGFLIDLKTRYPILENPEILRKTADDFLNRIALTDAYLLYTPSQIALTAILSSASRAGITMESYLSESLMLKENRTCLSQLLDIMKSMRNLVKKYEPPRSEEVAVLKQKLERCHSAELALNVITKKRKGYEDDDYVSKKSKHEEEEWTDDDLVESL
T1 sequence (P51948 whole entry partner): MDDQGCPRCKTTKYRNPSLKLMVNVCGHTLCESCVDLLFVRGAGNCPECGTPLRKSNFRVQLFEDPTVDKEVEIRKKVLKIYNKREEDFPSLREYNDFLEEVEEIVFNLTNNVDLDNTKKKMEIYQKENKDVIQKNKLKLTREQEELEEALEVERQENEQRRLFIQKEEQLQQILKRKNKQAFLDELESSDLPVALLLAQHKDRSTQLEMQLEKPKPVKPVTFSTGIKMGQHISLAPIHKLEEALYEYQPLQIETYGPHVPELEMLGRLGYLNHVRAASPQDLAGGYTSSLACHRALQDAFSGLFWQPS

Structure (SMILES) | IC50 (CDK7/Cyclin H/MNAT1) | CDK1/CDK7: Selectivity of CDK7 inhibition over CDK1 inhibition (CDK7/Cyclin H/MNAT1) | CDK2/CDK7: Selectivity of CDK7 inhibition over CDK2 inhibition (CDK7/Cyclin H/MNAT1) | CDK5/CDK7: Selectivity of CDK7 inhibition over CDK5 inhibition (CDK7/Cyclin H/MNAT1) | IC50 (CDK5/p25) | IC50 (CDK2/Cyclin A) | IC50 (CDK1/Cyclin B) | IC50 (OVCAR-3) | IC50 (A2780)
CC(C)c1cnn2c(NCc3ccccc3-c3nccc4cc(NC(=O)/C=C/CN(C)C)ccc34)nc(N3CCC(C#N)CC3)nc12 [Compound 105] | 100 to 1000 nM | B (B indicates 50 < [fold] ≤ 500) | B (B indicates 50 < [fold] ≤ 500) | B (B indicates 50 < [fold] ≤ 500) | > 1000 nM | > 1000 nM | > 1000 nM | < 1000 nM | < 1000 nM
CC(C)c1cnn2c(NCc3ccccc3-c3nccc4cc(NC(=O)/C=C/CN(C)C)ccc34)nc(N3CCC(=O)CC3)nc12 [Compound 106] | 100 to 1000 nM | C (C indicates [fold] ≤ 50) | C (C indicates [fold] ≤ 50) | C (C indicates [fold] ≤ 50) | > 1000 nM | > 1000 nM | > 1000 nM | < 1000 nM | < 1000 nM
CC(C)c1cnn2c(NCc3ccccc3-c3nccc4cc(NC(=O)/C=C/CN(C)C)ccc34)nc(N3CCC4(CC3)OCCO4)nc12 [Compound 110] | < 100 nM | B (B indicates 50 < [fold] ≤ 500) | B (B indicates 50 < [fold] ≤ 500) | B (B indicates 50 < [fold] ≤ 500) | > 1000 nM | > 1000 nM | > 1000 nM | < 1000 nM | < 1000 nM
C=CC(=O)Nc1cccc2ccc(-c3cccc(C)c3CNc3nc(N[C@H]4CC[C@H](OC)CC4)nc4c(C(C)C)cnn34)nc12 [Compound 112] | 100 to 1000 nM | B (B indicates 50 < [fold] ≤ 500) | B (B indicates 50 < [fold] ≤ 500) | B (B indicates 50 < [fold] ≤ 500) | > 1000 nM | > 1000 nM | > 1000 nM | < 1000 nM | < 1000 nM
C=CC(=O)Nc1ccc2c(-c3ccccc3CNc3nc(N4C5CCC4CC(O)C5)nc4c(C(C)C)cnn34)nccc2c1 (stereo not drawn) [Compound 114] | < 100 nM | A (A indicates [fold] > 500) | A (A indicates [fold] > 500) | A (A indicates [fold] > 500) | > 1000 nM | > 1000 nM | > 1000 nM | < 1000 nM | 1000 to 10000 nM
CC(C)c1cnn2c(NCc3ccccc3-c3nccc4cc(NC(=O)/C=C/CN(C)C)ccc34)nc(N3CCCC4(CC3)OCCO4)nc12 [Compound 115] | 100 to 1000 nM | B (B indicates 50 < [fold] ≤ 500) | B (B indicates 50 < [fold] ≤ 500) | B (B indicates 50 < [fold] ≤ 500) | > 1000 nM | > 1000 nM | > 1000 nM | 1000 to 10000 nM | < 1000 nM
CC(C)c1cnn2c(NCc3ccccc3-c3nccc4cc(NC(=O)/C=C/CN(C)C)ccc34)nc(N3CCC4(CCOC4)CC3)nc12 [Compound 117] | 100 to 1000 nM | B (B indicates 50 < [fold] ≤ 500) | B (B indicates 50 < [fold] ≤ 500) | B (B indicates 50 < [fold] ≤ 500) | > 1000 nM | > 1000 nM | > 1000 nM | < 1000 nM | < 1000 nM
C=CC(=O)Nc1ccc2c(-c3ccccc3CNc3cc(N4CCC5(CC4)OCCO5)nc4c(C(C)C)cnn34)nccc2c1 [Compound 118] | < 100 nM | A (A indicates [fold] > 500) | A (A indicates [fold] > 500) | A (A indicates [fold] > 500) | > 1000 nM | > 1000 nM | > 1000 nM | < 1000 nM | < 1000 nM
C=CC(=O)Nc1ccc2c(-c3ccccc3CNc3cc(N4C5CCC4CC(OC)C5)nc4c(C(C)C)cnn34)nccc2c1 (stereo not drawn) [Compound 119] | 100 to 1000 nM | B (B indicates 50 < [fold] ≤ 500) | B (B indicates 50 < [fold] ≤ 500) | B (B indicates 50 < [fold] ≤ 500) | > 1000 nM | > 1000 nM | > 1000 nM | < 1000 nM | < 1000 nM

The next lines start with the values.

IC50 (CDK7/Cyclin H/MNAT1) | CDK1/CDK7: Selectivity of CDK7 inhibition over CDK1 inhibition (CDK7/Cyclin H/MNAT1) | CDK2/CDK7: Selectivity of CDK7 inhibition over CDK2 inhibition (CDK7/Cyclin H/MNAT1) | CDK5/CDK7: Selectivity of CDK7 inhibition over CDK5 inhibition (CDK7/Cyclin H/MNAT1) | IC50 (CDK5/p25) | IC50 (CDK2/Cyclin A) | IC50 (CDK1/Cyclin B) | IC50 (OVCAR-3) | IC50 (A2780) | Structure (SMILES)
100 to 1000 nM | B (B indicates 50 < [fold] ≤ 500) | B (B indicates 50 < [fold] ≤ 500) | B (B indicates 50 < [fold] ≤ 500) | > 1000 nM | > 1000 nM | > 1000 nM | < 1000 nM | < 1000 nM | CC(C)c1cnn2c(NCc3ccccc3-c3nccc4cc(NC(=O)/C=C/CN(C)C)ccc34)nc(NC3CCS(=O)(=O)CC3)nc12 [Compound 107]
100 to 1000 nM | C (C indicates [fold] ≤ 50) | C (C indicates [fold] ≤ 50) | C (C indicates [fold] ≤ 50) | > 1000 nM | > 1000 nM | > 1000 nM | < 1000 nM | < 1000 nM | CC(C)c1cnn2c(NCc3ccccc3-c3nccc4cc(NC(=O)/C=C/CN(C)C)ccc34)nc(N3CC4(COC4)C3)nc12 [Compound 108]
< 100 nM | A (A indicates [fold] > 500) | A (A indicates [fold] > 500) | A (A indicates [fold] > 500) | > 1000 nM | > 1000 nM | > 1000 nM | 1000 to 10000 nM | 1000 to 10000 nM | CC(C)c1cnn2c(NCc3ccccc3-c3nccc4cc(NC(=O)/C=C/CN(C)C)ccc34)nc(NC[C@H]3CNC[C@@H]3O)nc12 [Compound 109]
< 100 nM | A (A indicates [fold] > 500) | A (A indicates [fold] > 500) | A (A indicates [fold] > 500) | > 1000 nM | > 1000 nM | > 1000 nM | < 1000 nM | < 1000 nM | C=CC(=O)Nc1ccc2c(-c3ccccc3CNc3nc(NC[C@H]4CNC[C@@H]4O)nc4c(C(C)C)cnn34)nccc2c1 [Compound 111]
< 100 nM | B (B indicates 50 < [fold] ≤ 500) | B (B indicates 50 < [fold] ≤ 500) | B (B indicates 50 < [fold] ≤ 500) | > 1000 nM | > 1000 nM | > 1000 nM | < 1000 nM | < 1000 nM | C=CC(=O)Nc1ccc2c(-c3ccccc3CNc3nc(N4CCS(=O)(=O)CC4)nc4c(C(C)C)cnn34)nccc2c1 [Compound 113]
< 100 nM | A (A indicates [fold] > 500) | A (A indicates [fold] > 500) | A (A indicates [fold] > 500) | > 1000 nM | > 1000 nM | > 1000 nM | < 1000 nM | < 1000 nM | C=CC(=O)Nc1ccc2c(-c3ccccc3CNc3cc(N[C@H]4CC[C@H](OC)CC4)nc4c(C(C)C)cnn34)nccc2c1 [Compound 116]
